Key:
LPAAT-β = target: T1, LPAAT-β (Homo sapiens, UniProt O15120); test: LPAAT-β colorimetric assay (DTNB detection of released CoA); type: biochemical; settings: Sf9 cell membrane overexpressing LPAAT-β; 18:1-CoA and sn-1-18:1 lysoPA; absorbance at 405 nm; read-out: LPAATβ Colorimetric Assay IC50
T1 construct: the full-length human LPAAT-β cDNA was amplified by PCR; poly-histidine tag (N); made in house; host or cells: Sf9 insect cells (baculovirus, pFastBac HTc); membrane fraction used
T1 sequence (O15120 24-278): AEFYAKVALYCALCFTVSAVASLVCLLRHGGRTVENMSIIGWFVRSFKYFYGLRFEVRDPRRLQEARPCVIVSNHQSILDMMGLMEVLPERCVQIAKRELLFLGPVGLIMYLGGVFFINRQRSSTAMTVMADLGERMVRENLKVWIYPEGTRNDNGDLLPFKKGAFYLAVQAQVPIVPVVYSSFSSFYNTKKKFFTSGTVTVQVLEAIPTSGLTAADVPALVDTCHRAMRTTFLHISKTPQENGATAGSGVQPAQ
From the text: For the construction of Baculovirus expression vectors, the full-length human LPAAT-β cDNA was amplified by PCR from the DNA template pCE9.LPAAT-β (West et al., DNA Cell Biol. 16:691-701 (1997)) using the primers 5′-TGATATCCGAAGAAGATCTTATGGAGCTGTGGCCGTGTC-3′ (olpb1F) and 5′-CAGGCTCTAG ACTACTGGGC CGGCTGCAC-3′ (olpb1R). The ˜870 bp fragment generated was reamplified by PCR using the primers 5′ CCTACGTCG ACATGGAACAAAAATTGATATCCGAAGAAGATC-3′ (olpb2F) and 5′-CAGGCTCTAG ACTACTGGGC CGGCTGCAC-3′ (olpb1R). The ˜890 bp fragment generated was then cleaved with Sal I and Xba I for insertion into pFastBac™ HTc vector (Life Technologies, Gaithersberg, Md.) between the Sal I and Xba I sites for the generation of the plasmid pFB.LPAAT-β. This plasmid was then transformed into E. coli DH10Bac™ (Life Technologies, Gaithersberg, Md.) for the generation of recombinant Bacmid DNA for transfection into HighFive (Invitrogen, San Diego, Calif.) or SF9 insect cells for the production of recombinant Baculovirus stocks using the protocol described in the Bac-to-Bac® Baculovirus Expression System (Life Technologies, Gaithersberg, Md.), a eukaryotic expression system for generating recombinant baculovirus through site-specific transposition in E. coli. Viral stocks harvested from the transfected cells can then be used to infect fresh insect cells for the subsequent expression of LPAAT-β fusion protein with a poly-histidine tag and a myc-epitope near its N-terminus. The membrane fraction from these Sf9 cells would be the source of LPAAT enzyme.
For the preparation of membranes From Sf9 Cells, all steps are performed on ice or at 4° C. Sf9 cell pellets ([…]) were thawed and resuspended in 1-2 ml of buffer A (20 mM Hepes, pH 7.5, 1 mM DTT, 1 mM EDTA, 20% w/v glycerol, 1 mM Benzamidine, 1 μg/ml soybean trypsin inhibitor (SBTI), 1 μg/ml pepstatin A) w/o DTT but with 1 mM Pefabloc. The cells were lysed by sonication using a Branson Sonifier at output=2, duty cycle=2, 10 pulses each at 10 s. with the tip of small sonicator probe submerged but not touching the walls. DTT was then added to 1 mM from a 1M stock. The samples were centrifuged at 1500 rpm for 5 min. The low speed supernatant was saved and centrifuged (TLA 100.3 rotor, polycarbonate tubes, 2 ml/tube or 1.5 ml/tube minimum) at 100000×g for 1 hr. The high speed pellet was resuspend in Buffer A with a probe sonicator (10 pulses @ output #2 and duty cycle 20%) as a source of LPAAT enzyme.
LPAAT-β catalyzes the transfer of an acyl group from a donor such as acyl-CoA to LPA. The transfer of the acyl group from acyl-CoA to LPA leads to the release of free CoA, which can be reacted with the thiol reagent, 5,5′-dithiobis(2-nitrobenzoic acid) (DTNB). The reaction between DTNB and the free sulfhydryl group from CoA generates a yellow-colored product, 3-carboxylato-4-nitrothiophenolate (CNP), that absorbs at 413 nm. LPAAT-β derived from Sf9 cell membrane overexpressing LPAAT-β were resuspended in HEPES saline buffer (20 mM HEPES pH 7.5, 150 mM NaCl), 1 mg/ml BSA and 72 μl aliquots were distributed into 96-well microtiter plates. 8 μl of compound of interest at 200 μM dissolved in 100% DMSO was added into each well. 20 μl of 1 mM 18:1-CoA and 1 mM sn-1-18:1 lysoPA was then added to each well to initiate the reaction and allowed to run at room temperature for 25 min. 100 μl of 1 mM DTNB in 100% ethanol was then added to each well to quench the reaction and for color development. The absorbance at 405 nm, measured using a spectrophotometer plate reader, is proportional to the activity of LPAAT-β in the sample. This calorimetric assay was used for the high throughput screening of LPAAT inhibitors. […] Compounds that gave a reading of less than 0.06 arbitrary units (indicated by arrow on right margin) were selected for further study.

[1] = tested on: human breast tumor MCF-7 cells; test: Proliferation of MCF-7 cells by CyQUANT analysis; type: cell-based; settings: MCF-7 cells in microplates, FIG. 5E
Protocol: To determine whether administration of LPAAT-β inhibitor would have any effect on cell proliferation in tissue culture, proliferation of human breast tumor MCF-7 cells in microplates were measured by CyQUANT analysis using a green-fluorescent nucleic acid stain optimized to produce a linear detection range from 50 to 50,000 cells in 200 μl volume (Molecular Probes, Eugene, Oreg.) in the presence of various concentrations of a LPAAT-β inhibitor.

Row | Compound | IC50 (LPAAT-β) [µM] | concentration effective in blocking the proliferation of MCF-7 cells [1] [µM]
1 | CCC(=O)Nc1ccc(F)c(-c2nc3cc(C)ccc3o2)c1 [CT-32011, N-(4-Fluoro-3-(5-methyl-benzooxazol-2-yl)-phenyl)-propionamide] | 15.5 | 
2 | CCC(=O)Nc1ccc(Cl)c(-c2nc3ccc(C)cc3o2)c1 [N-[4-Chloro-3-(6-methyl-benzooxazol-2-yl)-phenyl]-propionamide] |  | ≥ 20
